US20090017070A1, “In vitro model for hepatitis c virion production” (priority 2004, published 2009)

Tests used:
[1] = tested on: HCV (JFH-1, genotype 2a) in Huh7 cells; test: Interferon treatment of HCV.JFH1-Rbz transfected Huh7 cells, viral production by HCV core Ag level in the medium; assay type: cell-based, Hepatitis C virus; conditions: treated with interferon one day after transfection, HCV core Ag level in medium (FIG. 13B)
Text: FIG. 13. Production of infectious HCV in culture. (A). Full-length genomic cDNAs of HCV genotypes 1a (H77), 2b (J6), and 2a (JFH-1) were cloned into the HCV-ribozyme construct as described in FIG. 7. The constructs and the pTHr plasmid containing the CG1b HCV genome as described above were transfected into Huh7 cells and tested for virus production in the medium by using HCV core Ag ELISA. (B) HCV.JFH1-Rbz construct was transfected to Huh7 cells and treated with interferon one day after transfection. Viral production was monitored by measurement of HCV core Ag level in the medium. (C) Long-term culture of HCV.JFH1.Rbz transfected Huh7 cells were maintained with serial passage for the indicated duration. Culture medium was harvested at indicated times for HCV core Ag level and HCV RNA titer. […] Multiple foci of cells with positive intracellular staining were detected.
HCV RNA, Protein Quantitation, and RACE. HCV RNA level was quantitated by using the TaqMan real-time PCR method as previously described (Thomson, M. et al. 2001 Gastroenterology 121:1226-33). […] The core protein was quantitated by using the HCV core ELISA kits, which were provided by S. Yagi (Advanced Life Technology, Saitama, Japan) and used as previously described (Tanaka, E. et al. 2000 Hepatology 32: 388-93). […]

[2] = tested on: HCV; conditions: HCV-infected individuals treated with IFN; cited from earlier work

In the case of interferon-alfa, the “Sensitivity of viral replication to interferon-alfa treatment” value [1] is given as “sensitive” and the “Proportion of those treated showing a sustained response as evidenced by lack of circulating HCV RNA” value [2] is given as 10-20%.
